The record followed here is patent publication US20070276025A1, “Indirubin-Type Compounds, Compositions, and Methods for Their Use” (priority 2003, published 2007).

pEC50, pIC50: −log10 of the molar value. Where two headings read alike, the source gives them in different places. A value given as a limit tells only on which side of the number the result lay.

Data set [1] has as its target T1, AhR (Mus musculus, UniProt P30561).
T1 sequence (P30561 1-848): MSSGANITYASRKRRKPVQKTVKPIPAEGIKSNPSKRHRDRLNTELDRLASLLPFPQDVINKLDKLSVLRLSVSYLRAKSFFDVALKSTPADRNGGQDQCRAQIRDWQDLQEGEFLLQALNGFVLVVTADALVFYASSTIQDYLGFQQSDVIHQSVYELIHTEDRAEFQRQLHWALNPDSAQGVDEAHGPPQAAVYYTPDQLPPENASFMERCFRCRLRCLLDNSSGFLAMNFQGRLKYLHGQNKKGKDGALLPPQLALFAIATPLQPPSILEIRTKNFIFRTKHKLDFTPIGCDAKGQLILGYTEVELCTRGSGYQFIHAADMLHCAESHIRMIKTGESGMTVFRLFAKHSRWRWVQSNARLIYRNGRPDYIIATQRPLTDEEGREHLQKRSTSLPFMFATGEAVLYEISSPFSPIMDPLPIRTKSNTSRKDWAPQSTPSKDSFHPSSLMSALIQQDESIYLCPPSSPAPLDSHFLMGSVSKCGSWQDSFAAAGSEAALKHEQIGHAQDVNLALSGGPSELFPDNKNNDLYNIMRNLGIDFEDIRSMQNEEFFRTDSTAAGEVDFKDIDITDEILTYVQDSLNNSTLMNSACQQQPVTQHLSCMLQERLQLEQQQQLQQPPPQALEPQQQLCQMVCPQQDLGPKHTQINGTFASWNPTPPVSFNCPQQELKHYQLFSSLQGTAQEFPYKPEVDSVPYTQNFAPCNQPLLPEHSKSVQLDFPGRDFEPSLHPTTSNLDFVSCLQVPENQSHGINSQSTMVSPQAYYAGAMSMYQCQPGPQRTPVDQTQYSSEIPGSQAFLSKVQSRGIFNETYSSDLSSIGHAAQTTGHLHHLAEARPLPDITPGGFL
The note with it: read-out: EC50 AhR (hepatoma cell line); Table 4; EGFP at 24 hours.

Data set [2] in a line: Solubility (qualitative remark). The note with it: relative to parent indirubins / 3′-oximes.
Data set [3] concerns the target AhR (Homo sapiens, UniProt P35869). Briefly: Yeast AhR reporter assay (β-galactosidase). As to conditions: read-out: EC50 AhR (yeast); Table 4; * = inactive at the indicated highest concentration tested. For orientation: In a reporter assay the amount or activity of a reporter protein is the signal.
For another data set, the target named is GSK-3α/β. The data set is described as follows: GSK-3α/β kinase assay (GS-1 peptide, 15 μM ATP). Type of data set: biochemical, porcine.
Another data set deals with CDK1/cyclin B. The data set is described as follows: CDK1/cyclin B kinase assay (histone H1, 15 μM ATP). Type of data set: biochemical, starfish (Marthasterias glacialis).
A further data set has as its target CDK5/p25 (Homo sapiens, UniProt Q00535). Briefly: CDK5/p25 kinase assay (histone H1, 15 μM ATP). Type of data set: biochemical, mammalian. As to conditions: read-out: IC50 CDK5/p25.
The target in the next data set is MAPKK. Briefly: MAPKK kinase assay. The note with it: read-out: IC50 MAPKK; Table 2, 15 μM ATP.
The next data set addresses CDK5/p35 (Homo sapiens, UniProt Q00535). The data set is described as follows: CDK5/p35 kinase assay. As to conditions: read-out: IC50 CDK5/p35; Table 2, 15 μM ATP.
In the next data set the target is casein kinase 2. The data set is described as follows: casein kinase 2 assay. As to conditions: read-out: IC50 casein kinase 2; Table 2, 15 μM ATP.
The next data set relates to cGMP-dependent PK. Briefly: cGMP-dependent PK assay. As to conditions: read-out: IC50 cGMP-dependent PK; Table 2, 15 μM ATP.
The target in the next data set is protein kinase C γ (Homo sapiens, UniProt P05129). Briefly: protein kinase C γ assay. As to conditions: read-out: IC50 protein kinase C γ; Table 2, 15 μM ATP.
Another data set has as its target protein kinase C δ (Homo sapiens, UniProt Q05655). The data set is described as follows: protein kinase C δ assay. As to conditions: read-out: IC50 protein kinase C δ; Table 2, 15 μM ATP.
A further data set addresses T2, protein kinase C ζ (Homo sapiens, UniProt Q05513).
T2 sequence (Q05513 1-592): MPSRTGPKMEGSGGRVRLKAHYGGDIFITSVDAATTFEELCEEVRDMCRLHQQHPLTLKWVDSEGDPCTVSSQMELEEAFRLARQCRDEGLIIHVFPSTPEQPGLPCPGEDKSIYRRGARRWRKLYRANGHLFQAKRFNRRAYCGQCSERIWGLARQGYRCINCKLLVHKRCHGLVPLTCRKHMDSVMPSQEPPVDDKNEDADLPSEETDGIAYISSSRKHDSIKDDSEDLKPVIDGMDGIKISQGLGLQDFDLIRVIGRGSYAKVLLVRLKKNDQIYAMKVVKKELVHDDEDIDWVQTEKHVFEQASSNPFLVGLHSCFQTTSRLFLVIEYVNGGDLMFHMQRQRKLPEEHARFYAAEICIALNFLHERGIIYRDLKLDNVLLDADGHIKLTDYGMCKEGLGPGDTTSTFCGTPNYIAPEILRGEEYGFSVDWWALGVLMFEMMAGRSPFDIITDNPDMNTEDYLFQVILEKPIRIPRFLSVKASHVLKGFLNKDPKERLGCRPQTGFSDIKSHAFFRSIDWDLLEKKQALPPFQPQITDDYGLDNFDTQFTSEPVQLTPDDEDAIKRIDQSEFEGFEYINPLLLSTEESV
Briefly: protein kinase C ζ assay. The note with it: read-out: IC50 protein kinase C ζ; Table 2, 15 μM ATP.

A further data set concerns the target protein kinase C β2 (Homo sapiens, UniProt P05771). Briefly: protein kinase C β2 assay. The note with it: read-out: IC50 protein kinase C β2; Table 2, 15 μM ATP.
The next data set addresses CDK2/cyclin A (Homo sapiens, UniProt P24941). The data set is described as follows: CDK2/cyclin A kinase assay. The note with it: read-out: IC50 CDK2/cyclin A; Table 2, 15 μM ATP.
Data set [4] addresses insulin receptor Tyr kinase. Briefly: insulin receptor Tyr kinase assay. As to conditions: read-out: IC50 insulin receptor Tyr kinase; Table 2, 15 μM ATP.
Setting [5] is: Table 1, read-out: IC50 GSK-3 α/β.
The mark [6] stands for this setting: Table 2, 15 μM ATP, read-out: IC50 GSK-3α/β.
Setting [7] is: Table 5, read-out: IC50 GSK-3α/β.
[8] abbreviates: Table 7, GSK-3, read-out: IC50exp.
The mark [9] stands for this setting: Table 1, read-out: IC50 CDK1/cyclin B.
Setting [10] is: Table 2, 15 μM ATP, read-out: IC50 CDK1/cyclin B.
[11] abbreviates: Table 4, read-out: IC50 CDK1/cycin B.
Where [12] appears, read: Table 5, read-out: IC50 CDK1/cyclin B.

Chain of CDK5/p25 (Q00535 whole entry, species assumed): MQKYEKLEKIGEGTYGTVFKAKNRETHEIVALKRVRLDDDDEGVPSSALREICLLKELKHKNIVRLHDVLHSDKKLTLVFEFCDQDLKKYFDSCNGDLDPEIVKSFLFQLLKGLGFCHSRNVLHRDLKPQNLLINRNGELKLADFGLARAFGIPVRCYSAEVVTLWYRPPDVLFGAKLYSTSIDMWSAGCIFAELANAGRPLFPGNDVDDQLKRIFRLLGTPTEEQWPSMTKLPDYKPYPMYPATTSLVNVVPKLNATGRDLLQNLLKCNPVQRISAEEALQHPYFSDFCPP
Chain of CDK5/p25 (Q15078 99-307 partner limits assumed, species assumed): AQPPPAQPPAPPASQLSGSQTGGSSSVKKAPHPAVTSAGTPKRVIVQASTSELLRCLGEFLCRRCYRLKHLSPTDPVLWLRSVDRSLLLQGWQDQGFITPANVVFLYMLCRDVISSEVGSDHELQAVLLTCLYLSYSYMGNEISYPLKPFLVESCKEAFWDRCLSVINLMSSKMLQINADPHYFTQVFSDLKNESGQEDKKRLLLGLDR
Chain of protein kinase C β2 (P05771 1-673 isoform P05771-2): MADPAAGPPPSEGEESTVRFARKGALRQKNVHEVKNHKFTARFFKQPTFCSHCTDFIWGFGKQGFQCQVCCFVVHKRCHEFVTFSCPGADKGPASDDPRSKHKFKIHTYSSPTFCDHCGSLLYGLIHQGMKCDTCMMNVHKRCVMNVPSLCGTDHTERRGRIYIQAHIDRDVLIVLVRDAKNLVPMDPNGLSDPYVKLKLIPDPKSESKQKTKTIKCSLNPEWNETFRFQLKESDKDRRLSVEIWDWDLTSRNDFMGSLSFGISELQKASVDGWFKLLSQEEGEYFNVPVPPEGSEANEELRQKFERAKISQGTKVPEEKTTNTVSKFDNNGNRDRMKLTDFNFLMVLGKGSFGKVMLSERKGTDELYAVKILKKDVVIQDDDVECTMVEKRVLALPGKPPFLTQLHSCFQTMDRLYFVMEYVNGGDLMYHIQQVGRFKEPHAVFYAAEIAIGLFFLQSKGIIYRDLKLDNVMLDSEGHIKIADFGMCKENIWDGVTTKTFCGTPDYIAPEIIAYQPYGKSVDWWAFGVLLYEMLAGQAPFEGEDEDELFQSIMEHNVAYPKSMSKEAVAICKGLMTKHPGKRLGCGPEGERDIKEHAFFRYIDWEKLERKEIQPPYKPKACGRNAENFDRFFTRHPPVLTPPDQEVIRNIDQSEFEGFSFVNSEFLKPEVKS
Chain of AhR (Homo sapiens, UniProt P35869) (P35869 11-848): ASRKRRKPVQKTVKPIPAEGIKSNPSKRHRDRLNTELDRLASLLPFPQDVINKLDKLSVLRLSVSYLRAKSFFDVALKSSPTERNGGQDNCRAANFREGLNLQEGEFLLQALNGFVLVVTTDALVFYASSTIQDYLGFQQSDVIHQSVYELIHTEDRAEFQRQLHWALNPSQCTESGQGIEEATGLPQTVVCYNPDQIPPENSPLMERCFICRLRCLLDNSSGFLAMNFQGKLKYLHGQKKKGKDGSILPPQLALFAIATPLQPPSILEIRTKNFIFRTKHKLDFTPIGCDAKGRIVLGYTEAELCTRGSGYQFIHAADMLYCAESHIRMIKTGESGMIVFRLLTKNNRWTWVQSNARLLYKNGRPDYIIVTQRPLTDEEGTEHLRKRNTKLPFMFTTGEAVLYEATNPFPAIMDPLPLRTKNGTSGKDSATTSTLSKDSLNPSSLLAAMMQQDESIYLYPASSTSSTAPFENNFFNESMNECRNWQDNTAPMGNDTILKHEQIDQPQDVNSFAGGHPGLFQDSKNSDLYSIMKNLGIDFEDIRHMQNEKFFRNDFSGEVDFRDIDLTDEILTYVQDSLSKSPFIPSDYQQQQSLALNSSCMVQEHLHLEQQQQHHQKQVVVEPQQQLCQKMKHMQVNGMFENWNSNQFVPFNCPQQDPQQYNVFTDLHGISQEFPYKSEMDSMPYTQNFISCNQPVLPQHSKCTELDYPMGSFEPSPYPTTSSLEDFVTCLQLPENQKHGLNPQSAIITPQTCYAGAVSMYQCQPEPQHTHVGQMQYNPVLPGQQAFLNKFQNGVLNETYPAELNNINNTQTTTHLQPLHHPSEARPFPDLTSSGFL
Chain of AhR (Homo sapiens, UniProt P35869) (P27540 whole entry partner): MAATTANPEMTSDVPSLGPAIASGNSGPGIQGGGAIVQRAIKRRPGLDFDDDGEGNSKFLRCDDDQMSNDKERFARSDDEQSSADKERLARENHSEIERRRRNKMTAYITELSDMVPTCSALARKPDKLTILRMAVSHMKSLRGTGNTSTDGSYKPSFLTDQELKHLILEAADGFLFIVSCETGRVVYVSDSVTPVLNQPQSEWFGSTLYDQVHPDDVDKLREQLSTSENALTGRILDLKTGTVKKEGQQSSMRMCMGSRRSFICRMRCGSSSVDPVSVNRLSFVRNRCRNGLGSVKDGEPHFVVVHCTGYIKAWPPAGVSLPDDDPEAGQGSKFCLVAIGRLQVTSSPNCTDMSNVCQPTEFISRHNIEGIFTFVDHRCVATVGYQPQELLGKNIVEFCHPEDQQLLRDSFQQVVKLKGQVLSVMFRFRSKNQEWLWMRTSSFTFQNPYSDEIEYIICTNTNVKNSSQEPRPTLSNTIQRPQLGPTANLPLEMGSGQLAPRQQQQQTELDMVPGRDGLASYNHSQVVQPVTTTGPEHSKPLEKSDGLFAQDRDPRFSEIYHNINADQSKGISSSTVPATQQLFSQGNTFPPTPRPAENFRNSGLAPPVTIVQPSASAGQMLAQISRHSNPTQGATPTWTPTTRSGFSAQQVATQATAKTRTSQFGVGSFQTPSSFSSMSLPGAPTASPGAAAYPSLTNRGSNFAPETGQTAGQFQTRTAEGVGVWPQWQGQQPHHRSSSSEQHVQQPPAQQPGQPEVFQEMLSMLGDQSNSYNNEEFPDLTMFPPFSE
Chain of CDK5/p35 (Q00535 whole entry, species assumed): as the sequence (Q00535 whole entry, species assumed) above
Chain of CDK5/p35 (Q15078 whole entry partner, species assumed): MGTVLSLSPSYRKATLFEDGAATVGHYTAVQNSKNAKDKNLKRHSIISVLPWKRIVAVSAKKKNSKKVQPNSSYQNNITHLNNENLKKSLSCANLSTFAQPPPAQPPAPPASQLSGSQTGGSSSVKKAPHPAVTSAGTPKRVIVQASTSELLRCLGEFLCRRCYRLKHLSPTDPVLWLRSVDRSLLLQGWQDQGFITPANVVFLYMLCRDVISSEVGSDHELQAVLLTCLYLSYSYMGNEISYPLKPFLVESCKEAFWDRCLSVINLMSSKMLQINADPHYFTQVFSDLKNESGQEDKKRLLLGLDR
Chain of protein kinase C δ (Q05655 whole entry): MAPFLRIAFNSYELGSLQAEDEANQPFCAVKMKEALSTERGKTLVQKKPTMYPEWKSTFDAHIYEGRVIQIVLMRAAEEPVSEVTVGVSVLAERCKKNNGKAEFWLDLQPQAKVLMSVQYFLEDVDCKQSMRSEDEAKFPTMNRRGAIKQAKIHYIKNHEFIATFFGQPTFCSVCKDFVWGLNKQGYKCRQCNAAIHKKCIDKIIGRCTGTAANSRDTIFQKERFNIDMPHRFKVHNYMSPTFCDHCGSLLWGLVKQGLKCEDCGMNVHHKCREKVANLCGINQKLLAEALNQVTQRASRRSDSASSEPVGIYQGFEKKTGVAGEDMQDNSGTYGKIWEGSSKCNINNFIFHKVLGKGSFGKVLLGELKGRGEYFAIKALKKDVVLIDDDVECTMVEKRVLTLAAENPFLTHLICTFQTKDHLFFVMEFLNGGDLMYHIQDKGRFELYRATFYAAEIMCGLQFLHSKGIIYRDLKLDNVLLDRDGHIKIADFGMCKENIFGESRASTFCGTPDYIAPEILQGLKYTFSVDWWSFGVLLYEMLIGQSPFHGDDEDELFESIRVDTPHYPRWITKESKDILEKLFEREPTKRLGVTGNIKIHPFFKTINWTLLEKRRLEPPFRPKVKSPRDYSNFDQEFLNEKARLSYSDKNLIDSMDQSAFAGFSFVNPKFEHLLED

`O=C1Nc2ccccc2/C1=C1/Nc2ccccc2/C1=N\O` [7h, indirubin-3′-oxime]: the pEC50 (commonly the negative decadic logarithm of the EC50, by convention in mol/L) was 6.14 on AhR [1] and 7.60 on AhR [3]. Besides, in data set [2], the “solubility (in words)” value is given as “increased solubility”.
As for `CC(=O)ON=C1C(=C2C(=O)Nc3cc(Br)ccc32)Nc2ccccc21` [8a, 6-Bromoindirubin-3′-acetoxime], the pIC50 on GSK-3α/β (setting [5]) was 8.00; on GSK-3α/β (setting [6]), 8.00; on GSK-3α/β (Table 4, read-out: IC50 GSK-3) it was 8.00; at GSK-3α/β (setting [7]), 8.00; at GSK-3α/β (setting [8]), 8.00; at CDK1/cyclin B (setting [9]), 4.20. In addition, the pIC50 was 4.20 at CDK1/cyclin B (setting [10]); 4.20 on CDK1/cyclin B (setting [11]); 4.20 at CDK1/cyclin B (setting [12]); 5.62 at CDK5/p25 (Table 1); 5.62 on CDK5/p25 (Table 5); less than 5.00 on MAPKK. Moreover, the pIC50 on CDK5/p35 is 5.62; on casein kinase 2 it was less than 5.00; with cGMP-dependent PK, less than 5.00; on protein kinase C γ it was less than 5.00; on protein kinase C δ, less than 5.00; at protein kinase C ζ, less than 5.00. The pIC50 on protein kinase C β2 is less than 5.00; on CDK2/cyclin A it was 5.37; in data set [4] it was less than 5.00. In addition, on AhR [1], the pEC50 was 6.80. Also, the “solubility (in words)” value in data set [2] is on record as “less soluble”.
Take `CON=C1C(=C2C(=O)Nc3cc(Br)ccc32)Nc2ccccc21` [9a, 6-Bromoindirubin-3′-methoxime]: the pIC50 was 7.52 on GSK-3α/β (setting [5]); 7.52 on GSK-3α/β (setting [6]); 7.52 at GSK-3α/β (Table 4, read-out: IC50 GSK-3); 7.52 at GSK-3α/β (setting [7]); 7.52 at GSK-3α/β (setting [8]); 5.47 at CDK1/cyclin B (setting [9]). For the same compound, the pIC50 at CDK1/cyclin B (setting [10]) is 5.47; on CDK1/cyclin B (setting [11]), 5.47; on CDK1/cyclin B (setting [12]) it was 5.43; on CDK5/p25 (Table 1) it was 5.66; at CDK5/p25 (Table 5), 5.66; on MAPKK, less than 5.00. In addition, the pIC50 is 5.66 on CDK5/p35; 5.05 on casein kinase 2; less than 5.00 in the data set on cGMP-dependent PK; less than 5.00 at protein kinase C γ; less than 5.00 on protein kinase C δ; less than 5.00 on protein kinase C ζ. For the same compound, the results for the pIC50 (on protein kinase C β2; on CDK2/cyclin A; in [4]) were less than 5.00, 4.82 and less than 5.00, respectively. Further, the pEC50 on AhR [1] is 7.52; at AhR [3] it was less than 7.00. In data set [2], the “solubility (in words)” value is “less soluble”.
